# Data from the supplement of paper PMC10307832.
# Assays:
# Assay in all cases: relative viability (nuclei count vs DMSO), 5 days (fraction); higher = more cells survive
# NCI-H1666 = tested on: NCI-H1666
# Summary of the method: (§1)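 Relative viability equals treated-well nuclei counts divided by vehicle-well nuclei counts. Counts came from 4× images of lung cancer cell lines grown in 1536-well plates for 5 days after pin-tool dosing on the day after seeding. Dosing used one drug alone or a fixed anchor-drug dose plus five library-drug doses (not always all listed) in √10 steps, and values are medians of duplicate plates.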
# PC-14 = tested on: PC-14
# Summary of the method: as §1
# BEN = tested on: BEN
# Summary of the method: as §1
# NCI-H520 = tested on: NCI-H520
# Summary of the method: as §1
# ABC-1 = tested on: ABC-1
# Summary of the method: as §1
# NCI-H358 = tested on: NCI-H358
# Summary of the method: as §1
# NCI-H23 = tested on: NCI-H23
# Summary of the method: as §1
# NCI-H596 = tested on: NCI-H596
# Summary of the method: as §1
# NCI-H2405 = tested on: NCI-H2405
# Summary of the method: as §1
# NCI-H1975 = tested on: NCI-H1975
# Summary of the method: as §1
# HOP-62 = tested on: HOP-62
# Summary of the method: as §1
# HCC-827 = tested on: HCC-827
# Summary of the method: as §1
# NCI-H3122 = tested on: NCI-H3122
# Summary of the method: as §1
# NCI-H2170 = tested on: NCI-H2170
# Summary of the method: as §1
# NCI-H1792 = tested on: NCI-H1792
# Summary of the method: as §1
# EPLC-272H = tested on: EPLC-272H
# Summary of the method: as §1
# UMC-11 = tested on: UMC-11
# Summary of the method: as §1
# NCI-H727 = tested on: NCI-H727
# Summary of the method: as §1
# NCI-H322M = tested on: NCI-H322M
# Summary of the method: as §1
# LU99A = tested on: LU99A
# Summary of the method: as §1
# NCI-H647 = tested on: NCI-H647
# Summary of the method: as §1
# NCI-H838 = tested on: NCI-H838
# Summary of the method: as §1
# NCI-H1355 = tested on: NCI-H1355
# Summary of the method: as §1
smiles,measurement,setting,value
O=C(O)CCCCC(CCSCc1ccccc1)SCc1ccccc1 (stereo not given) [CPI-613] + O=C(c1cc(Cc2n[nH]c(=O)c3ccccc23)ccc1F)N1CCN(C(=O)C2CC2)CC1 [Olaparib] (partner 8 µM),relative viability,NCI-H1666; first compound 5 µM,0.749
same,relative viability,NCI-H1666; first compound 15.81 µM,0.772
same,relative viability,NCI-H1666; first compound 50 µM,0.865
same,relative viability,NCI-H1666; first compound 158.11 µM,0.304
same,relative viability,NCI-H1666; first compound 500 µM,0.396
same,relative viability,PC-14; first compound 5 µM,0.283
same,relative viability,PC-14; first compound 15.81 µM,0.231
same,relative viability,PC-14; first compound 50 µM,0.262
same,relative viability,PC-14; first compound 158.11 µM,0.078
same,relative viability,PC-14; first compound 500 µM,0.0073
same,relative viability,BEN; first compound 5 µM,1.09
same,relative viability,BEN; first compound 15.81 µM,0.853
same,relative viability,BEN; first compound 50 µM,0.909
same,relative viability,BEN; first compound 158.11 µM,0.786
same,relative viability,BEN; first compound 500 µM,0.931
same,relative viability,NCI-H520; first compound 5 µM,0.323
same,relative viability,NCI-H520; first compound 15.81 µM,0.371
same,relative viability,NCI-H520; first compound 50 µM,0.329
same,relative viability,NCI-H520; first compound 158.11 µM,0.136
same,relative viability,NCI-H520; first compound 500 µM,0.113
same,relative viability,ABC-1; first compound 5 µM,0.816
same,relative viability,ABC-1; first compound 15.81 µM,0.845
same,relative viability,ABC-1; first compound 50 µM,0.957
same,relative viability,ABC-1; first compound 158.11 µM,0.448
same,relative viability,ABC-1; first compound 500 µM,0.383
same,relative viability,NCI-H358; first compound 5 µM,0.532
same,relative viability,NCI-H358; first compound 15.81 µM,0.518
same,relative viability,NCI-H358; first compound 50 µM,0.572
same,relative viability,NCI-H358; first compound 158.11 µM,0.126
same,relative viability,NCI-H358; first compound 500 µM,0.112
same,relative viability,NCI-H23; first compound 5 µM,0.33
same,relative viability,NCI-H23; first compound 15.81 µM,0.28
same,relative viability,NCI-H23; first compound 50 µM,0.282
same,relative viability,NCI-H23; first compound 158.11 µM,0.0911
same,relative viability,NCI-H23; first compound 500 µM,0.0098
same,relative viability,NCI-H596; first compound 5 µM,0.723
same,relative viability,NCI-H596; first compound 15.81 µM,0.723
same,relative viability,NCI-H596; first compound 50 µM,0.633
same,relative viability,NCI-H596; first compound 158.11 µM,0.323
same,relative viability,NCI-H596; first compound 500 µM,0.0561
same,relative viability,NCI-H2405; first compound 5 µM,0.89
same,relative viability,NCI-H2405; first compound 15.81 µM,0.787
same,relative viability,NCI-H2405; first compound 50 µM,0.781
same,relative viability,NCI-H2405; first compound 158.11 µM,0.25
same,relative viability,NCI-H2405; first compound 500 µM,0.0972
same,relative viability,NCI-H1975; first compound 5 µM,0.745
same,relative viability,NCI-H1975; first compound 15.81 µM,0.758
same,relative viability,NCI-H1975; first compound 50 µM,0.85
same,relative viability,NCI-H1975; first compound 158.11 µM,0.563
same,relative viability,NCI-H1975; first compound 500 µM,0.099
same,relative viability,HOP-62; first compound 5 µM,0.298
same,relative viability,HOP-62; first compound 15.81 µM,0.471
same,relative viability,HOP-62; first compound 50 µM,0.368
same,relative viability,HOP-62; first compound 158.11 µM,0.459
same,relative viability,HOP-62; first compound 500 µM,0.459
same,relative viability,HCC-827; first compound 5 µM,0.558
same,relative viability,HCC-827; first compound 15.81 µM,0.602
same,relative viability,HCC-827; first compound 50 µM,0.691
same,relative viability,HCC-827; first compound 158.11 µM,0.691
same,relative viability,HCC-827; first compound 500 µM,0.538
same,relative viability,NCI-H3122; first compound 5 µM,0.672
same,relative viability,NCI-H3122; first compound 15.81 µM,0.589
same,relative viability,NCI-H3122; first compound 50 µM,0.574
same,relative viability,NCI-H3122; first compound 158.11 µM,0.442
same,relative viability,NCI-H3122; first compound 500 µM,0.609
same,relative viability,NCI-H2170; first compound 5 µM,0.591
same,relative viability,NCI-H2170; first compound 15.81 µM,0.554
same,relative viability,NCI-H2170; first compound 50 µM,0.534
same,relative viability,NCI-H2170; first compound 158.11 µM,0.403
same,relative viability,NCI-H2170; first compound 500 µM,0.18
same,relative viability,NCI-H1792; first compound 5 µM,0.391
same,relative viability,NCI-H1792; first compound 15.81 µM,0.358
same,relative viability,NCI-H1792; first compound 50 µM,0.328
same,relative viability,NCI-H1792; first compound 158.11 µM,0.0603
same,relative viability,NCI-H1792; first compound 500 µM,0.087
same,relative viability,EPLC-272H; first compound 5 µM,0.812
same,relative viability,EPLC-272H; first compound 15.81 µM,0.683
same,relative viability,EPLC-272H; first compound 50 µM,0.653
same,relative viability,EPLC-272H; first compound 158.11 µM,0.198
same,relative viability,EPLC-272H; first compound 500 µM,0.083
same,relative viability,UMC-11; first compound 5 µM,0.352
same,relative viability,UMC-11; first compound 15.81 µM,0.371
same,relative viability,UMC-11; first compound 50 µM,0.375
same,relative viability,UMC-11; first compound 158.11 µM,0.155
same,relative viability,UMC-11; first compound 500 µM,0.115
same,relative viability,NCI-H727; first compound 5 µM,0.783
same,relative viability,NCI-H727; first compound 15.81 µM,0.672
same,relative viability,NCI-H727; first compound 50 µM,0.631
same,relative viability,NCI-H727; first compound 158.11 µM,0.748
same,relative viability,NCI-H727; first compound 500 µM,0.678
same,relative viability,NCI-H322M; first compound 5 µM,0.74
same,relative viability,NCI-H322M; first compound 15.81 µM,0.769
same,relative viability,NCI-H322M; first compound 50 µM,0.761
same,relative viability,NCI-H322M; first compound 158.11 µM,0.594
same,relative viability,NCI-H322M; first compound 500 µM,0.106
same,relative viability,LU99A; first compound 5 µM,0.26
same,relative viability,LU99A; first compound 15.81 µM,0.237
same,relative viability,LU99A; first compound 50 µM,0.242
same,relative viability,LU99A; first compound 158.11 µM,0.127
same,relative viability,LU99A; first compound 500 µM,0.161
same,relative viability,NCI-H647; first compound 5 µM,0.426
same,relative viability,NCI-H647; first compound 15.81 µM,0.528
same,relative viability,NCI-H647; first compound 50 µM,0.331
same,relative viability,NCI-H647; first compound 158.11 µM,0.0348
same,relative viability,NCI-H647; first compound 500 µM,0.0133
same,relative viability,NCI-H838; first compound 5 µM,0.79
same,relative viability,NCI-H838; first compound 15.81 µM,0.705
same,relative viability,NCI-H838; first compound 50 µM,0.721
same,relative viability,NCI-H838; first compound 158.11 µM,0.278
same,relative viability,NCI-H838; first compound 500 µM,0.115
same,relative viability,NCI-H1355; first compound 5 µM,0.728
same,relative viability,NCI-H1355; first compound 15.81 µM,0.706
same,relative viability,NCI-H1355; first compound 50 µM,0.714
same,relative viability,NCI-H1355; first compound 158.11 µM,0.376
same,relative viability,NCI-H1355; first compound 500 µM,0.0737
